The experiment deals with IL-12 induced STAT4 phosphorylation in human CD3+ T cells. Briefly: Assay 12: inhibition of IL-12-induced STAT4 phosphorylation in human CD3+ T cells. To be noted: T-cell, read-out: pIC50 for inhibition of IL-12 induced STAT4 phosphorylation (converted). The class given is cell-based. The protocol: Assay 12: Inhibition of IL-12-Induced STAT4 Phosphorylation in Human CD3+ T Cells
This cellular potency assay for JAK inhibition was carried out by measuring interleukin-12 (IL-12, R&D Systems) induced STAT4 phosphorylation in human CD3^+ T cells. The CD3 antibody (Becton Dickinson (BD) Biosciences) was conjugated to R-Phycoerythrin (R-PE). The pSTAT4 antibody (pTyr641, BD Biosciences) was conjugated with Alexa Fluor 647.
Human peripheral blood mononuclear cells were cultured at 37° C. in a 5% CO2 humidified incubator in RPMI medium (Life Technologies) supplemented with 10% FBS (Life Technologies), 100 U/mL penicillin, 100 μg/mL streptomycin (Life Technologies), 2 mM GlutaMAX (Life Technologies), plate bound anti CD3 (5 μg/mL, UCHT1, BD Biosciences) and soluble anti-CD28 (1 μg/mL, CD28.2, BD Biosciences) for 3 days. Cells were then resuspended in RPMI medium (Life Technologies) supplemented with 10% FBS (Life Technologies), 100 U/mL penicillin, 100 μg/mL streptomycin (Life Technologies), 2 mM GlutaMAX (Life Technologies) and 10 ng/mL interleukin-2 (IL-2, R&D Systems) for an additional 3 days. […] For dose-response analysis, mean fluorescence intensity values were plotted vs. compound concentrations, and IC50 values were determined from a 4-parameter robust fit model with the Prism software.

Take `CCS(=O)(=O)N1[C@@H]2CCC[C@H]1C[C@H](N(C)c1nc(CO)c(F)c(Nc3cc(C)[nH]n3)n1)C2` [Compound (I), (2-(((1R,3s,5S)-9-(ethylsulfonyl)-9-azabicyclo[3.3.1]nonan-3-yl)(methyl)amino)-5-fluoro-6-((5-methyl-1H-pyrazol-3-yl)amino)pyrimidin-4-yl)methanol]: the IC50 was 63.1 nM.
